Where “and” joins values, the source holds several entries; their conditions need not be identical. Equal values may be shown once.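 The compound was tested at five concentrations on cells cultured in 96-well plates, with a 48-hour exposure period. At the GI50, growth is halved. TGI: concentration producing complete growth inhibition.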
Tests used:
Assay in all cases: growth of human tumour cells (NCI), 48 h
[1] = system: OVCAR-8 ovarian
[2] = system: NCI-H522 lung
[3] = system: SF-268 CNS
[4] = system: SN12C renal
[5] = system: TK-10 renal
[6] = system: SW-620 colon
[7] = system: HCT-116 colon
[8] = system: SK-MEL-5 melanoma
[9] = system: OVCAR-4 ovarian
[10] = system: CCRF-CEM leukemia
[11] = system: XF 498 CNS

| Structure (SMILES) | GI50 [1] [µM] | TGI [1] | GI50 [2] [µM] | TGI [2] | GI50 [3] [µM] | TGI [3] | GI50 [4] [µM] | TGI [4] | GI50 [5] [µM] | TGI [5] [µM] | GI50 [6] [µM] | TGI [6] | GI50 [7] [µM] | TGI [7] | GI50 [8] [µM] | TGI [8] [µM] | TGI [9] | TGI [10] | GI50 [11] [µM] | TGI [11] |
| --- | --- | --- | --- | --- | --- | --- | --- | --- | --- | --- | --- | --- | --- | --- | --- | --- | --- | --- | --- | --- |
| Cn1cc(-c2nc(-c3c[nH]c4ccncc34)cs2)c2cc(F)ccc21 | 2.11 | 4.79 µM | 1.67 | 3.23 µM | 1.74 | 3.44 µM | 1.68 | 3.32 µM | 2.11 | 3.69 | 1.65 | 3.4 µM | 1.63 | 3.28 µM | 1.65 | 3.03 | – | – | – | – |
| C=CC[N+](CCO)(CCO)CCCCCCCCCCCCCCCCCC | – | 59.5 µM | – | 13.5 µM | – | 13.3 µM | – | 24 µM | – | – | – | 22.2 µM | – | 14.7 µM | – | 25.6 | 16.4 µM | 3.76 µM | – | – |
| COc1ccc(/C(Cl)=C(\C=O)c2ccccc2)cc1OC | – | > 100 µM | – | 30.8 µM | – | > 100 µM | – | > 100 µM | – | > 100 | – | > 100 µM | – | > 100 µM | – | > 100 | > 100 µM | > 100 µM | – | – |
| C=C1C(=O)O[C@@H]2OC3(C)CCC4C(C)CCC1C42OO3 (stereo not given in full) | 3.47 | 16.2 µM and 11.7 µM | – | 3.88 µM and 3.16 µM | 4.56 | 18.1 µM and 11.6 µM | 4.96 | 16.6 µM and 12.3 µM | – | – | 3.44 | 13.6 µM and 10.8 µM | 2.47 | 10.2 µM and 3.52 µM | – | 17.2 | 32.4 µM and 26 µM | 2.35 µM and 5.26 µM | 12 | 24.3 µM and 3.88 µM |
| N/C(=N\N=C\c1cc2c(cc1Cl)OCO2)NO | – | > 100 µM | – | > 100 µM | – | > 100 µM | – | > 100 µM | – | – | – | > 100 µM | – | > 100 µM | – | 58.9 | > 100 µM | > 100 µM | – | > 34.2 µM |
| O=C1OC(c2ccc(Cl)cc2)(c2ccc(Cl)cc2)c2c1ccc1ccccc21 | – | > 100 µM | – | > 100 µM | – | > 100 µM | – | > 100 µM | – | > 100 | – | > 100 µM | – | – | – | > 100 | > 100 µM | > 100 µM | – | > 100 µM |
| C[C@H](CN1CC(=O)NC(=O)C1)N1CC(=O)NC(=O)C1 | – | > 100 µM | – | > 71.2 µM | – | > 100 µM | – | > 100 µM | – | – | – | > 84.4 µM | – | > 100 µM | – | > 100 | > 100 µM | > 100 µM | – | > 100 µM |
| Nc1nn(CC(O)CO)c(=O)s1 (stereo not given) | – | > 100 µM | – | – | – | > 100 µM | – | > 100 µM | – | > 100 | – | > 100 µM | – | > 100 µM | – | > 100 | > 100 µM | > 100 µM | – | > 100 µM |
| CCOC(=O)C1=NN(c2ccc(Cl)cc2)C2=CC(C)=NN(C)C(=S)N21 | – | > 100 µM | – | 46.9 µM | – | > 100 µM | – | > 100 µM | – | 62 | – | > 100 µM | – | > 100 µM | – | > 100 | > 100 µM | > 100 µM | – | – |
| COc1ccc(/C=N/n2cnc3c(c2=O)S/C(=C2/SC(=S)N(c4ccc(C)cc4)C2=O)N3c2ccccc2)cc1 | – | > 100 µM | – | > 100 µM | – | 99.5 µM | – | > 100 µM | – | > 100 | – | > 100 µM | – | > 100 µM | – | – | 94.1 µM | > 100 µM | – | – |
| C[C@H](N)C(=O)N[C@@H]1[C@H]2C(=C(O)C[C@@H](O)[C@@H]2O)C(=O)O[C@@H]1C | – | > 100 µM | – | > 100 µM | – | > 100 µM | – | > 100 µM | – | – | – | > 100 µM | – | > 100 µM | – | > 100 | > 100 µM | > 100 µM | – | > 100 µM |

From PubChem BioAssay (NCI)
